Results as given in patent US12630530B2, “FGFR inhibitor compound and use thereof” (HENAN MEDINNO PHARMACEUTICAL TECHNOLOGY CO., LTD., priority 2020, dated 2026).

Key:
Format in all cases: biochemical
VEGFR2 [1] = target: T1, VEGFR2 (Homo sapiens, UniProt P35968); test: Assay I: kinase inhibition (HTRF KinEASE-TK), VEGFR2; conditions: Table 1; ATP working concentration 5 μM, substrate TK 1 μM
T1 construct: purchased Carna 08-191

FGFR3 V555M [2] = target: T2, FGFR3 V555M (Homo sapiens, UniProt P22607, V555M); test: Assay I: inhibitory activity against FGFR mutants (HTRF KinEASE-TK); conditions: Table 1; ATP working concentration 20 μM, substrate TK 1 μM
T2 construct: purchased Signalchem F06-12GG
Procedure: (§1) Assay I: Determination of Inhibitory Activity Against FGFR Mutants
(§2) 1×Kinase reaction buffer was formulated with 1×volume of 5× kinase reaction buffer and 4×volume of water; 5 mM MgCl2; and 1 mM DTT.
(§3) 2.3 Screening of Compounds: • 1. Diluting a compound 4-fold in a dilution plate with DMSO, with a starting compound concentration of 2 mM (4 mM for Nentedanib). • 2. Diluting the compound 40-fold into 1× kinase reaction buffer and shaking it on a shaker for 20 minutes. • 3. […] Adding 1 μl of the compound diluted in buffer to each well, sealing the plate with a sealing membrane and centrifuging the plate at 1000 g for 30 seconds and leaving it at room temperature for 10 minutes. • 6. Formulating 2.5×TK-substrate-biotin and ATP mixture with 1× enzyme reaction buffer and adding 2 μl of K-substrate-biotin/ATP mixture to the reaction plate. • 7. Sealing the plate with a sealing membrane and centrifuging the plate at 1000 g for 30 seconds and allowing it to react at room temperature for 50 minutes. • 8. Formulating 4×Sa-XL 665 (250 nM) with HTRF assay buffer. • 9. Adding 5 μl Sa-XL 665 and 5 μl TK-Antibody-Cryptate to each well, centrifuging it at 1000 g for 30 seconds, and allowing it to react for 1 hour at room temperature. • 10. Reading fluorescence signals at 615 nm (Cryptate) and 665 nm (XL665) with Biotek. 3. Data Analysis
(§4) 3.1 Calculation of the ratio for each well: the ratio was calculated as 665/615 nm.
(§5) 3.3 Calculation of IC50 and plotting of inhibition curves for the compounds.
(§6) The IC50 (half inhibition concentration) of a compound was obtained using the following non-linear fitting equation, wherein data analysis was performed using Graphpad 6.0 software.
(§7) Data were exported from Envision and analyzed manually. The ratios were converted to inhibition rates and IC50 was calculated by Prism GraphPad 6.0 from the inhibition rates. IC50 was calculated again by the ratios to verify accuracy of the results.

FGFR1 V561M [3] = target: T3, FGFR1 V561M (Homo sapiens, UniProt P11362, V561M); test: as above; conditions: Table 1; ATP working concentration 5 μM, substrate TK 1 μM
T3 construct: purchased Signalchem F04-13G
Procedure: as §1, §2
(§8) 2.3 Screening of Compounds: • 1. […] Adding 1 μl of the compound diluted in buffer to each well, sealing the plate with a sealing membrane and centrifuging the plate at 1000 g for 30 seconds and leaving it at room temperature for 10 minutes. • 6. Formulating 2.5×TK-substrate-biotin and ATP mixture with 1× enzyme reaction buffer and adding 2 μl of K-substrate-biotin/ATP mixture to the reaction plate. • 7. Sealing the plate with a sealing membrane and centrifuging the plate at 1000 g for 30 seconds and allowing it to react at room temperature for 50 minutes. • 8. […] 3. Data Analysis
as §5, §6, §7

FGFR2 V564F [4] = target: T4, FGFR2 V564F (Homo sapiens, UniProt P21802, V564F); test: as above; conditions: Table 1; ATP working concentration 10 μM, substrate TK 1 μM
T4 construct: purchased Signalchem F05-12FG
Procedure: as §1, §2, §8, §5, §6, §7

VEGFR2 [5] = target: T1, VEGFR2; test: Assay III: kinase inhibition (method of Assay I, different operator), VEGFR2; conditions: Table 3; same method as Assay I, different experimental operator
Procedure: as §2
2.3 Screening of Compounds: • 1. Diluting a compound 4-fold in a dilution plate with DMSO, with a starting compound concentration of 2 mM (4 mM for Nentedanib). • 2. Diluting the compound 40-fold into 1× kinase reaction buffer and shaking it on a shaker for 20 minutes. • 3. Formulating 2×FGFR1 V561M/FGFR2 V564F/FGFR3 K650E/VEGFR2 with 1× of enzyme reaction buffer. • 4. Adding 2 μl FGFR1 V561M/FGFR2 V564F/FGFR3 K650E/VEGFR2 kinase (formulated in step 3) to each well of the reaction plate. • 5. Adding 1 μl of the compound diluted in buffer to each well, sealing the plate with a sealing membrane and centrifuging the plate at 1000 g for 30 seconds and leaving it at room temperature for 10 minutes. • 6. Formulating 2.5×TK-substrate-biotin and ATP mixture with 1× enzyme reaction buffer and adding 2 μl of K-substrate-biotin/ATP mixture to the reaction plate. • 7. Sealing the plate with a sealing membrane and centrifuging the plate at 1000 g for 30 seconds and allowing it to react at room temperature for 50 minutes. • 8. Formulating 4×Sa-XL 665 (250 nM) with HTRF assay buffer. • 9. Adding 5 μl Sa-XL 665 and 5 μl TK-Antibody-Cryptate to each well, centrifuging it at 1000 g for 30 seconds, and allowing it to react for 1 hour at room temperature. • 10. Reading fluorescence signals at 615 nm (Cryptate) and 665 nm (XL665) with Biotek. 3. Data Analysis
as §4, §5
The IC50 (half inhibition concentration) of a compound was obtained using the following non-linear fitting equation, wherein data analysis was performed using Graphpad 6.0 software. Y=Bottom+(Top−Bottom)/(1+10^((Log IC50−X)*Hill Slope)) • X: log value of compound concentration; and Y: inhibition rate (% inh) 3.4 Validation of Results
as §7
(§9) Assay III: Determination of Inhibitory Activity Against FGFR Mutants

FGFR1 V561M [6] = target: T3, FGFR1 V561M; test: Assay III: inhibitory activity against FGFR mutants (method of Assay I, different operator); conditions: Table 3; same method as Assay I, different experimental operator
Procedure: as §2, §3, §4, §5, §6, §7, §9

FGFR3 V555M [7] = target: T2, FGFR3 V555M; test: as above; conditions: Table 3; same method as Assay I, different experimental operator
Procedure: as §2, §3, §4, §5, §6, §7, §9

FGFR2 V564F [8] = target: T4, FGFR2 V564F; test: as above; conditions: Table 3; same method as Assay I, different experimental operator
Procedure: as §2, §3, §4, §5, §6, §7, §9

T4 sequence (P21802 22-821 V564F): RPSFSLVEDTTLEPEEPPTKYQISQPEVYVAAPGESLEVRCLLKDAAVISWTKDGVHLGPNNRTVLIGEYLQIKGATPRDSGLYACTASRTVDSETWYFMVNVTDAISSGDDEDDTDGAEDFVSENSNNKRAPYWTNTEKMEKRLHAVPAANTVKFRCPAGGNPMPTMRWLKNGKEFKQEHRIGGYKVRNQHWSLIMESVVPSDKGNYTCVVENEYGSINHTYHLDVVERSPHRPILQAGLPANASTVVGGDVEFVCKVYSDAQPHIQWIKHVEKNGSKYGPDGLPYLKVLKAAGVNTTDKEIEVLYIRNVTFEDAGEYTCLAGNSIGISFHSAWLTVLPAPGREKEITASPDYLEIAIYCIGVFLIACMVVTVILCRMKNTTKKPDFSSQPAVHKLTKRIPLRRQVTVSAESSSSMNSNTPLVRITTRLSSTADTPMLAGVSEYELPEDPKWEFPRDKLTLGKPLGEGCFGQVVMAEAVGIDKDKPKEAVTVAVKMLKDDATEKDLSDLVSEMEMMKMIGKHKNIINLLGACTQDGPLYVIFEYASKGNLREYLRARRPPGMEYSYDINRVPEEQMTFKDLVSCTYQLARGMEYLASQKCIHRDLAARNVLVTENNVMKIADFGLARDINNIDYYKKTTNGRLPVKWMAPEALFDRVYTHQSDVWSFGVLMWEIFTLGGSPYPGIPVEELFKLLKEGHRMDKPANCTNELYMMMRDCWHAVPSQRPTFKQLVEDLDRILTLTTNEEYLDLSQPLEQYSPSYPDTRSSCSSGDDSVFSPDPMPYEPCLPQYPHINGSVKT
T2 sequence (P22607 23-806 V555M): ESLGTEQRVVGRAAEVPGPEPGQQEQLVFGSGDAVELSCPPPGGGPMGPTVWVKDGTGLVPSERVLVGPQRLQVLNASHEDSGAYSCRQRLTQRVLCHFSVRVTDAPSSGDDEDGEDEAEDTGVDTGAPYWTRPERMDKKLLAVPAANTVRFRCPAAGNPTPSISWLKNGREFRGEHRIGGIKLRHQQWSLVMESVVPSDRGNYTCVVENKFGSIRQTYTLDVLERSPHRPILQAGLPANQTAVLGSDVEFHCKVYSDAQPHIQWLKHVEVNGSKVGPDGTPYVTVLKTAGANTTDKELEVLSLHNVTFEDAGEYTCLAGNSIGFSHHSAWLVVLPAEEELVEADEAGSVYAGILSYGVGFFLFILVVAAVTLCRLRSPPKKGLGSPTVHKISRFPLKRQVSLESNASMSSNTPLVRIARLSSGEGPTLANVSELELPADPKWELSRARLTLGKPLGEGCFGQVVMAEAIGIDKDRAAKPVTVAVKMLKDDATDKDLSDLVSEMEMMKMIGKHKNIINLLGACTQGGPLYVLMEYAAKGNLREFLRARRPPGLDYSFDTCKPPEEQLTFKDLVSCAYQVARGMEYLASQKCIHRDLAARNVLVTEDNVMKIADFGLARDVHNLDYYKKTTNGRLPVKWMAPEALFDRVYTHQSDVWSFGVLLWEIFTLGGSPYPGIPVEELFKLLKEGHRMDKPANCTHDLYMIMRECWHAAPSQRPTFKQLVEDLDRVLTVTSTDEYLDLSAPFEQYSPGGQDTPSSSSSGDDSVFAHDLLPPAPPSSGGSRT
T1 sequence (P35968 20-1356): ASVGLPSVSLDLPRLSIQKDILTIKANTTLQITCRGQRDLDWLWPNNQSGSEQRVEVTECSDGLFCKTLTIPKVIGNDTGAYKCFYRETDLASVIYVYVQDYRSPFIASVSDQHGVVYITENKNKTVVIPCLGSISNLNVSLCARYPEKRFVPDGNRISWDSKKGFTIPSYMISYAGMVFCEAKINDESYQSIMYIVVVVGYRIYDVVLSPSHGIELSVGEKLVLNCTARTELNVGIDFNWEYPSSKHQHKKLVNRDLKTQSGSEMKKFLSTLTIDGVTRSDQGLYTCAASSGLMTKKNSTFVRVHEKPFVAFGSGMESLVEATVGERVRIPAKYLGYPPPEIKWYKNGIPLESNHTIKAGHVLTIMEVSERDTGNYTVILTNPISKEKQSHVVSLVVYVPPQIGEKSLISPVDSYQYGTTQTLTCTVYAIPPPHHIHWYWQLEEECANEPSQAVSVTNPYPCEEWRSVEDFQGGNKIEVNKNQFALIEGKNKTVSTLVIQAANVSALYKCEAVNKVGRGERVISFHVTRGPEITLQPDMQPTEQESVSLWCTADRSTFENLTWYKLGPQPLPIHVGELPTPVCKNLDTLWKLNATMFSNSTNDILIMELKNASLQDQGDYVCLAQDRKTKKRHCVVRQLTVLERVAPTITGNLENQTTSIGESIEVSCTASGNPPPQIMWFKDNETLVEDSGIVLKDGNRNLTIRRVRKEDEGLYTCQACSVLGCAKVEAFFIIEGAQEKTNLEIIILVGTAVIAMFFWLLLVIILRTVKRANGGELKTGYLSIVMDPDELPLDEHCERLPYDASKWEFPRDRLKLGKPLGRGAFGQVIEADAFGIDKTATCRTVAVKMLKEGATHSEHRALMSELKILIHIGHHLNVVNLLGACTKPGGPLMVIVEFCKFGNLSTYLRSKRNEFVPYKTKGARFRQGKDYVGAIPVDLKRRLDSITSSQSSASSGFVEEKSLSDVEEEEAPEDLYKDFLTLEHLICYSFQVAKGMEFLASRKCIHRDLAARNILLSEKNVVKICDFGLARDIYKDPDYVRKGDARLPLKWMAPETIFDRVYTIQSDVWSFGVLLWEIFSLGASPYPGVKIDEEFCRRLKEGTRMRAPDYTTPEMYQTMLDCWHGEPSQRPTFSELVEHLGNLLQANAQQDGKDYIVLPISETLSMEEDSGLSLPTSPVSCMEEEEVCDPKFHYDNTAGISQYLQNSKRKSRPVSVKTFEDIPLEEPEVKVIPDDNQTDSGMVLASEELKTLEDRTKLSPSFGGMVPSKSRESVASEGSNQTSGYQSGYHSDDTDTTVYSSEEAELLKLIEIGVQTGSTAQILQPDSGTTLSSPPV
T3 sequence (P11362 22-822 V561M): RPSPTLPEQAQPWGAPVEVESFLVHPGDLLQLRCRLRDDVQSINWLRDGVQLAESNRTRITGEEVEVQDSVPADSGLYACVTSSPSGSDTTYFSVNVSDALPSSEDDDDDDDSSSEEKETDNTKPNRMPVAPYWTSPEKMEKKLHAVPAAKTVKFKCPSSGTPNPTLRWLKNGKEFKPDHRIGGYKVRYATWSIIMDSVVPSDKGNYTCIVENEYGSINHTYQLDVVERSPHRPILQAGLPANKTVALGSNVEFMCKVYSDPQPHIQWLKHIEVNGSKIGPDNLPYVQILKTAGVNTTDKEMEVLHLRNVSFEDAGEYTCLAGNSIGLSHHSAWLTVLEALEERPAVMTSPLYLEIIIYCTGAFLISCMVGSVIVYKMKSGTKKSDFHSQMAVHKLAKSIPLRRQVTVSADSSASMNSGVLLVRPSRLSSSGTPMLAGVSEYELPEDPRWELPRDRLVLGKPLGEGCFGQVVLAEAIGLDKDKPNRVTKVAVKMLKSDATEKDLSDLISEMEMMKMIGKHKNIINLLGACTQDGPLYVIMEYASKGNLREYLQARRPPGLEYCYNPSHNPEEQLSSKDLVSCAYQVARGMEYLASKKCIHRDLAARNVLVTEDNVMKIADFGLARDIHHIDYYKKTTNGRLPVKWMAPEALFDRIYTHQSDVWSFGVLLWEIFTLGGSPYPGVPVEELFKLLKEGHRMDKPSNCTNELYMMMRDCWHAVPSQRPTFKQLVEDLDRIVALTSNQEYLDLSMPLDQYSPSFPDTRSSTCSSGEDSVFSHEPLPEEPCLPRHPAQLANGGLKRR

| Structure (SMILES) | IC50 (VEGFR2 [1]) | IC50 (FGFR3 V555M [2]) | IC50 (FGFR1 V561M [3]) | IC50 (FGFR2 V564F [4]) | IC50 (VEGFR2 [5]) | IC50 (FGFR1 V561M [6]) | IC50 (FGFR3 V555M [7]) | IC50 (FGFR2 V564F [8]) |
| --- | --- | --- | --- | --- | --- | --- | --- | --- |
| CC(Oc1ccc2[nH]nc(C(=O)Nc3cnn(CCN4CCOCC4)c3)c2c1)c1c(Cl)cncc1Cl (stereo not drawn) [Compound 19, 5-(1-(3,5-dichloropyridin-4-yl)ethoxy)-N-(1-(2-morpholinoethyl)-1H-pyrazol-4-yl)-1H-indazole-3-carboxamide] | 63.4 nM | 0.27 nM | 0.35 nM | 0.24 nM | – | – | – | – |
| CCn1cc(NC(=O)c2n[nH]c3ccc(OC(C)c4c(Cl)cncc4Cl)cc23)cn1 (stereo not drawn) [Compound 20, 5-(1-(3,5-dichloropyridin-4-yl)ethoxy)-N-(1-ethyl-1H-pyrazol-4-yl)-1H-indazole-3-carboxamide] | 327 nM | 0.88 nM | 9.1 nM | 0.82 nM | – | – | – | – |
| CC(Oc1ccc2[nH]nc(C(=O)Nc3cnn(CCC4(O)CC4)c3)c2c1)c1c(Cl)cncc1Cl (stereo not drawn) [Compound 15, 5-(1-(3,5-dichloropyridin-4-yl)ethoxy)-N-(1-(2-(1-hydroxycyclopropyl)ethyl)-1H-pyrazol-4-yl)-1H-indazole-3-carboxamide] | 66.2 nM | 2.1 nM | 2.2 nM | 0.84 nM | – | – | – | – |
| CC(Oc1ccc2[nH]nc(C(=O)Nc3ccc(N4CC[C@@H](O)C4)cc3)c2c1)c1c(Cl)cncc1Cl (stereo partly drawn) [Compound 3, 5-(1-(3,5-dichloropyridin-4-yl)ethoxy)-N-(4-((R)-3-hydroxypyrrolidin-1-yl)phenyl)-1H-indazole-3-carboxamide] | > 10000 nM | – | 69.7 nM | 22.1 nM | – | – | – | – |
| CC(Oc1ccc2[nH]nc(C(=O)Nc3cnn(C4CN(C)C4)c3)c2c1)c1c(Cl)cncc1Cl (stereo not drawn) [Compound 21, 5-(1-(3,5-dichloropyridin-4-yl)ethoxy)-N-(1-(1-methylazetidin-3-yl)-1H-pyrazol-4-yl)-1H-indazole-3-carboxamide] | 39.4 nM | 0.15 nM | 0.27 nM | 0.09 nM | – | – | – | – |
| CC(Oc1ccc2[nH]nc(C(=O)Nc3ccc(N4CCC(O)CC4)cc3)c2c1)c1c(Cl)cncc1Cl (stereo not drawn) [Compound 13, 5-(1-(3,5-dichloropyridin-4-yl)ethoxy)-N-(4-(4-hydroxypiperidin-1-yl)phenyl)-1H-indazole-3-carboxamide] | > 10000 nM | 5.9 nM | 6.8 nM | 8.9 nM | – | – | – | – |
| CC(Oc1ccc2[nH]nc(C(=O)Nc3ccc(N4CCOCC4)nc3)c2c1)c1c(Cl)cncc1Cl (stereo not drawn) [Compound 4, 5-(1-(3,5-dichloropyridin-4-yl)ethoxy)-N-(6-morpholinopyridin-3-yl)-1H-indazole-3-carboxamide] | 1590 nM | – | 95.1 nM | 9.5 nM | – | – | – | – |
| C[C@H](O)Cn1cc(NC(=O)c2n[nH]c3ccc(O[C@H](C)c4c(Cl)cncc4Cl)cc23)cn1 [Compound 32, 5-((R)-1-(3,5-dichloropyridin-4-yl)ethoxy)-N-(1-((S)-2-hydroxypropyl)-1H-pyrazol-4-yl)-1H-indazole-3-carboxamide] | – | – | – | – | 86 nM | 0.3 nM | 0.26 nM | 0.37 nM |
| CC(Oc1ccc2[nH]nc(C(=O)Nc3cnn(CCCO)c3)c2c1)c1c(Cl)cncc1Cl (stereo not drawn) [Compound 29, 5-(1-(3,5-dichloropyridin-4-yl)ethoxy)-N-(1-(3-hydroxypropyl)-1H-pyrazol-4-yl)-1H-indazole-3-carboxamide] | – | – | – | – | 144 nM | 2.3 nM | 0.25 nM | 0.93 nM |

Other lines, results leading:

| IC50 (VEGFR2 [1]) | IC50 (FGFR3 V555M [2]) | IC50 (FGFR1 V561M [3]) | IC50 (FGFR2 V564F [4]) | IC50 (VEGFR2 [5]) | IC50 (FGFR1 V561M [6]) | IC50 (FGFR3 V555M [7]) | IC50 (FGFR2 V564F [8]) | Structure (SMILES) |
| --- | --- | --- | --- | --- | --- | --- | --- | --- |
| – | – | – | – | 194 nM | 2.3 nM | 2.1 nM | 1.2 nM | C[C@@H](Oc1ccc2[nH]nc(C(=O)Nc3cnn(C4CCOCC4)c3)c2c1)c1c(Cl)cncc1Cl [Compound 47, (R)-5-(1-(3,5-dichloropyridin-4-yl)ethoxy)-N-(1-(tetrahydro-2H-pyran-4-yl)-1H-pyrazol-4-yl)-1H-indazole-3-carboxamide] |
| – | – | – | – | 152 nM | 1.7 nM | 0.64 nM | 0.37 nM | C[C@@H](Oc1ccc2[nH]nc(C(=O)Nc3cnn(Cc4ccncc4)c3)c2c1)c1c(Cl)cncc1Cl [Compound 50, (R)-5-(1-(3,5-dichloropyridin-4-yl)ethoxy)-N-(1-(pyridin-4-ylmethyl)-1H-pyrazol-4-yl)-1H-indazole-3-carboxamide] |
| – | – | – | – | 110 nM | 0.51 nM | 1.4 nM | 0.55 nM | C[C@@H](Oc1ccc2[nH]nc(C(=O)Nc3cnn(Cc4cccnc4)c3)c2c1)c1c(Cl)cncc1Cl [Compound 49, (R)-5-(1-(3,5-dichloropyridin-4-yl)ethoxy)-N-(1-(pyridin-3-ylmethyl)-1H-pyrazol-4-yl)-1H-indazole-3-carboxamide] |
| – | – | – | – | 169 nM | 1.1 nM | 0.44 nM | 0.43 nM | C[C@@H](Oc1ccc2[nH]nc(C(=O)Nc3cnn(CC4CCCN4C)c3)c2c1)c1c(Cl)cncc1Cl (stereo partly drawn) [Compound 42] |
| – | – | – | – | 41 nM | 0.88 nM | 0.11 nM | 0.07 nM | C[C@@H](Oc1ccc2[nH]nc(C(=O)Nc3cnn(CCN(C)C)c3)c2c1)c1c(Cl)cncc1Cl [Compound 36, (R)-5-(1-(3,5-dichloropyridin-4-yl)ethoxy)-N-(1-(2-(dimethylamino)ethyl)-1H-pyrazol-4-yl)-1H-indazole-3-carboxamide] |
| – | – | – | – | 184 nM | 3.4 nM | 2.1 nM | 1 nM | CCC(Oc1ccc2[nH]nc(C(=O)Nc3cnn(C)c3)c2c1)c1c(Cl)cncc1Cl (stereo not drawn) [Compound 46, 5-(1-(3,5-dichloropyridin-4-yl)propoxy)-N-(1-methyl-1H-pyrazol-4-yl)-1H-indazole-3-carboxamide] |
| – | – | – | – | 79 nM | 1.6 nM | 0.16 nM | 0.44 nM | C[C@@H](Oc1ccc2[nH]nc(C(=O)Nc3cnn(CCN4CCOCC4)c3)c2c1)c1c(Cl)cncc1Cl [Compound 37, (R)-5-(1-(3,5-dichloropyridin-4-yl)ethoxy)-N-(1-(2-morpholinoethyl)-1H-pyrazol-4-yl)-1H-indazole-3-carboxamide] |
| – | – | – | – | 99 nM | 1 nM | 0.39 nM | 0.33 nM | C[C@@H](O)Cn1cc(NC(=O)c2n[nH]c3ccc(O[C@H](C)c4c(Cl)cncc4Cl)cc23)cn1 [Compound 33, 5-((R)-1-(3,5-dichloropyridin-4-yl)ethoxy)-N-(1-((R)-2-hydroxypropyl)-1H-pyrazol-4-yl)-1H-indazole-3-carboxamide] |
